Entries after “also recorded” stand apart in the source; their conditions may differ.
Columns and labels:
normal rats = assay: Hypoglycemic effects in normal rats; format: in vivo, male Wistar rats
Protocol: Groups of 5 male Wistar rats, after being fasted for 4 hrs, were orally administered with compound 20 or 23 of the present invention or gliclazide. Blood samples were collected from the orbital vein before, 1 hr and 6 hrs after the administration. Serum glucose levels were determined by the enzymatic method with an autoanalyser (Cobas Fara ® , Roche).

[1] = test system: streptozotocin-diabetic rats; assay: Ketone body lowering effects in streptozotocin-diabetic rats; format: in vivo; details: STZ-diabetic rats; for Lowering rate of serum total ketone body (%): 100 mg/kg orally for 2 weeks, blood 6 hrs after the last administration
Protocol: (§1) Diabetic rats were produced according to the method of Junod et al. (A. Junod et al., J. Clin. Invest., 48, 2129 (1969)). Briefly, male Wistar rats were given 26.5 mg/kg of streptozotocin (STZ) intravenously. Four days later, the rats with serum glucose levels of between 400 and 500 mg/dl were used. After being fasted for 4 hrs, groups of 5 diabetic rats were orally administered with the compounds of the present invention or gliclazide in a dose of 100 mg/kg. Blood samples were collected from the orbital vein before and 6 hrs after the administration. Serum glucose levels were determined by the enzymatic methods with an autoanalyzer (Cobas Fara ® , Roche).
(§2) Diabetic rats were produced according to the method described previously. Groups of 5 diabetic rats were orally administered with compound 20 or 23 of the present invention for 2 weeks. The rats were deprived of food 4 hrs before the last administration, and 6 hrs after the last administration, blood samples were collected from the orbital vein. Serum total ketone body (KB) levels were determined by the enzymatic method with an autoanalyzer (Cobas Fara ® , Roche). In this experiment, serum total ketone body levels in streptozotocin - diabetic rats increased by 92 % of normal rats in the mean value.

ICR strain mice = assay: Acute toxicity in mice; format: in vivo; details: oral dose of 1 g/kg, one-week period after the administration
Text: Hydantoin derivatives of the present invention were examined for acute toxicity.

[2] = test system: streptozotocin - diabetic rats; assay: Hypolipidemic effects in streptozotocin-diabetic rats; format: in vivo; details: STZ-diabetic rats; for Lowering rate of serum lipids (%) CHOL / Lowering rate of serum lipids (%) NEFA / Lowering rate of serum lipids (%) TG: 100 mg/kg orally for 2 weeks; for Lowering rate of serum lipids (%) CHOL: serum cholesterol 6 hrs after the last administration; for Lowering rate of serum lipids (%) NEFA: serum non-esterified fatty acid 6 hrs after the last administration; for Lowering rate of serum lipids (%) TG: serum triglyceride 6 hrs after the last administration
Protocol: as §1
as §2, with “invention at a dose of 100 mg/kg” for “invention”, “triglyceride (TG), non - esterified fatty acid (NEFA) and cholesterol (CHOL)” for “total ketone body (KB)”, “experiment, each parameters of” for “experiment,”, “lipids” for “total ketone body levels”, “40” for “92”

[3] = test system: streptozotocin-diabetic rats; assay: Hypoglycemic effects in streptozotocin-diabetic rats; format: in vivo, male Wistar rats
Protocol: as §1, with “Four” for “Diabetic rats were produced according to the method of Junod et al. (A. Junod et al., J. Clin. Invest., 48, 2129 (1969)). Briefly, male Wistar rats were given 26.5 mg/kg of streptozotocin (STZ) intravenously. Four”

[4] = 100 mg/kg p.o., 1 hour after administration
[5] = 100 mg/kg p.o., 6 hours after administration

O=C1CN(S(=O)(=O)c2oc3ccccc3c2Cl)C(=O)N1 [Compound 23, 1-(3-chlorobenzo[b]furan-2-ylsulfonyl)hydantoin]
influence on serum glucose level of normal rats (in words) (normal rats): lesser influences | Lowering rate of serum glucose (%) (normal rats; [4]): 9% | Lowering rate of serum glucose (%) (normal rats; [5]): 0% | lowering of serum total ketone body levels (in words) [1]: lowering activity | Lowering rate of serum total ketone body (%) [1]: 43% | acute toxicity (ICR strain mice): no change was observed | lowering of serum triglyceride, non - esterified fatty acid and cholesterol levels (in words) [2]: lowering activities | Lowering rate of serum lipids (%) CHOL [2]: 30% | Lowering rate of serum lipids (%) NEFA [2]: 18% | Lowering rate of serum lipids (%) TG [2]: 43%

O=C1CN(S(=O)(=O)c2oc3ccccc3c2Br)C(=O)N1 [Compound 20, 1-(3-bromobenzo[b]furan-2-ylsulfonyl)hydantoin]
influence on serum glucose level of normal rats (in words) (normal rats): lesser influences | Lowering rate of serum glucose (%) (normal rats; [4]): 13% | Lowering rate of serum glucose (%) (normal rats; [5]): 6% | lowering of serum total ketone body levels (in words) [1]: lowering activity | Lowering rate of serum total ketone body (%) [1]: 50% | acute toxicity (ICR strain mice): no change was observed | lowering of serum triglyceride, non - esterified fatty acid and cholesterol levels (in words) [2]: lowering activities | Lowering rate of serum lipids (%) CHOL [2]: 31% | Lowering rate of serum lipids (%) NEFA [2]: 35% | Lowering rate of serum lipids (%) TG [2]: 36%

O=C1CN(S(=O)(=O)c2cc3ccccc3s2)C(=O)N1 [Compound 8, 1-(benzo[b]thien-2-ylsulfonyl)hydantoin]
acute toxicity (ICR strain mice): no change was observed

O=C1CN(S(=O)(=O)c2cc3ccc(Cl)cc3cc2Cl)C(=O)N1 [Compound 2, 1-(3,6-dichloronaphthalen-2-ylsulfonyl)hydantoin]
acute toxicity (ICR strain mice): no change was observed

1-(benzo[b]isothiazol-3-ylsulfonyl)hydantoin [Compound 15]
Lowering rate of serum glucose (%) ([3]; STZ-diabetic rats fasted 4 hrs, 100 mg/kg orally, 6 hrs after administration vs before): 23.6%

O=C1CN(S(=O)(=O)c2cc3ccccc3o2)C(=O)N1 [Compound 9, 1-(benzo[b]furan-2-ylsulfonyl)hydantoin]
acute toxicity (ICR strain mice): no change was observed

Cc1ccc(S(=O)(=O)NC(=O)NN2CC3CCCC3C2)cc1 (centres unmarked) [Compound A, gliclazide, reference compound]
influence on serum glucose level of normal rats (in words) (normal rats): significantly lowered; also recorded: remarkable hypoglycemic activity | Lowering rate of serum glucose (%) (normal rats; 10 mg/kg p.o., 1 hour after administration): 57% | Lowering rate of serum glucose (%) (normal rats; 10 mg/kg p.o., 6 hours after administration): 1% | hypoglycemic activity (in words) ([3]; STZ-diabetic rats / experimental animal model of diabetes mellitus): less potent hypoglycemic activity than all compounds of the present invention

O=C1CN(S(=O)(=O)c2cc(Cl)sc2Cl)C(=O)N1 [Compound 16, 1-(2,5-dichlorothien-3-ylsulfonyl)hydantoin]
acute toxicity (ICR strain mice): no change was observed

— patent publication EP0444546B1, “Hydantoin derivatives for use as hypoglycemic and/or hypolipidemic agents” (MOCHIDA PHARMACEUTICAL CO., LTD., priority 1990, dated 1991)
